Reference: patent publication US12729377B2, “RNAi agents and compositions for inhibiting expression of angiopoietin-like 3 (ANGPTL3), and methods of use” (Arrowhead Pharmaceuticals, Inc., priority 2017, dated 2026)
In the oligonucleotide strings, read from the 5' end, every base follows the letter of its sugar. An asterisk marks phosphorothioate; unmarked linkages are phosphodiester. Other units and linkages are bracketed, terminal groups are in braces. A string of capitals states the bases alone. {NAG37} = tridentate N-acetyl-galactosamine targeting ligand, structure (NAG37)s; [invAb] = inverted abasic unit; m = 2'-O-methyl; f = 2'-fluoro

Legend:
ANGPTL3 mRNA [1] = test: Example 11: liver ANGPTL3 mRNA by RT-qPCR in mice; format: in vivo, C57bl/6 mice
Description: To assess the dose response of ANGPTL3 RNAi agent AD05488, six- to eight-week-old female C57bl/6 mice were used. Pre-dose serum samples were taken at day −1 after a four hour fast. At day 1, each mouse was given a single subcutaneous administration of 200 μl containing the respective mg/kg dose of an ANGPTL3 RNAi agent in D5W (dextrose in 5% water), or control (D5W) with no RNAi agent, according to the dosing groups recited in Table 53:
Additionally, ANGPTL3 mRNA levels were also assessed. All of the mice from each respective group were sacrificed on day 29 after serum collection, livers were harvested, and approximately 100 mg liver samples were collected and snap-frozen in liquid nitrogen for RNA isolation.

ANGPTL3 gene = test: Example 9: serum triglycerides in cynomolgus monkeys; format: in vivo, cynomolgus macaque (Macaca fascicularis); settings: 2.0 mg/kg single SC injection day 1, cynos, n=3
Description: Additional ANGPTL3 RNAi agents were evaluated in cynomolgus monkeys. On day 1, cynomolgus macaque (Macaca fascicularis) primates (also referred to herein as “cynos”) were administered a single subcutaneous injection of 0.3 mL/kg (approximately 2-3 mL volume, depending on animal mass) containing 2.0 mg/kg of an ANGPTL3 RNAi agent, which included either AD05488, AD05743, AD05775, or AD05841, each formulated in saline. […] ANGPTL3 RNAi agents AD05488, AD05743, and AD05775 included nucleotide sequences designed to target position 304 of the ANGPTL3 gene. ANGPTL3 RNAi agent AD05841 included nucleotide sequences designed to target position 1035 of the ANGPTL3 gene.
Three (3) cynos in each group were tested (n=3). Blood samples were drawn and serum samples were analyzed on days −14 (predose), −7 (predose), 1 (pre-dose), 8, 15, 22, 29, and 35. Cynos were fasted overnight prior to each collection. ANGPTL3 protein levels in serum were measured by ELISA assay (R&D Systems), according to the manufacturer's recommendations. Triglycerides, total cholesterol, high-density lipoprotein (HDL), and low-density lipoprotein (LDL) in serum were measured on a Cobas® Integra 400 (Roche Diagnostics), according to the manufacturer's recommendations.
The ANGPTL3 protein levels, triglyceride levels, total cholesterol levels, HDL levels, and LDL levels for each animal were normalized. For normalization, the level of ANGPTL3 protein, triglyceride, HDL, and total cholesterol, respectively, for each animal at a time point, was divided by the average pre-treatment level of expression in that animal (in this case at days −14, −7, and 1) to determine the ratio of expression “normalized to pre-treatment.”

ANGPTL3 mRNA [2] = test: Example 12: liver ANGPTL3 mRNA by RT-qPCR in LDLR knockout mice; format: in vivo, LDLR KO mice; settings: for Avg Relative ANGPTL3 mRNA, Normalized to Control: normalized to Group 1 day 15
Excerpt: To evaluate the effect of RNAi agent administration in a disease model, mice having a genetic mutation for the LDL receptor (referred to herein as LDLR KO mice) were commercially obtained (The Jackson Laboratory). The LDLR KO mice are homozygous for the Ldlr^tm1Her mutation, and have elevated serum cholesterol levels, particularly when placed on a high fat diet. For three weeks prior to the onset of the study, thirty-nine (39) LDLR KO mice were placed on a high fat diet (Teklad Custom Diets TD.88137). An additional eight (8) LDLR KO mice were placed on a normal chow diet over the same three-week period. Pre-dose serum samples were taken on day −15 and day −1 after a four hour fast. At day 1, each mouse was given a single subcutaneous administration of 200 μl/30 g animal body weight containing the respective mg/kg dose of an ANGPTL3 RNAi agent in D5W (dextrose in 5% water), control (D5W) with no RNAi agent, or a control RNAi agent that included a nucleotide sequence designed to target the Hepatitis B Virus (HBV) genome. A second injection of the same formulation was administered to the animals on day 29. The dosing regimen for the study is recited in the following Table 60:
Each mouse remained on its respective diet through the duration of study. The RNAi agent tested (AD05488) included a modified sequence and an N-acetyl-galactosamine-containing targeting ligand conjugated to the 5′ terminal end of the sense strand. (See Tables 3, […] modified sequences and targeting ligand structures). The injections were performed between the skin and muscle (i.e. subcutaneous injections) into the loose skin over the neck and shoulder area. Serum was collected on days 8, 15, 22, 29 (pre-second dose), 36, 43, 50, and 57. LDLR KO mice were fasted for four hours prior to each collection. On day 15, four (4) LDLR KO mice from Groups 1, 2, and 3 (i.e., the groups being administered the high fat “Western” diet) were sacrificed after serum collection, and on day 29, an additional four (4) LDLR KO mice from Groups 1, 2, and 3 were sacrificed after serum collection, for the purpose of performing mRNA assessments.
Additionally, ANGPTL3 mRNA levels were also assessed. On day 15, four (4) mice were sacrificed from each of Groups 1, 2, and 3. On day 29, an additional four (4) mice were sacrificed from each of Groups 1, 2, and 3. On day 57, all remaining animals from all Groups were sacrificed. At sacrifice, livers were harvested, and approximately 100 mg liver samples from the median lobes were collected and snap-frozen in liquid nitrogen for RNA isolation. Levels of ANGPTL3 mRNA in the mice livers were then measured by RT-qPCR, and normalized to the mRNA levels of the mice in Group 1 (high fat “Western” diet; D5W administration; day 15 sacrifice), the results of which are set forth in the following Table 66: […]

For “AD05488: RNAi agent duplex: antisense AM07235-AS, sense AM07234-SS (antisense mU*fA*mC*fUmGfAmUfCmAfAmAfUmAfUmGfUmUfGmAfG*mC; sense {NAG37}*[invAb]*mGmCmUmCmAmAmCmAfUfAfUmUmUmGmAmUmCmAmGmUmA*[invAb])”, the “Avg Relative ANGPTL3 mRNA, Normalized to Control” value (ANGPTL3 mRNA [1]; 0.05 mg/kg single sc day 1, Day 29) was 0.798, the “Avg Relative ANGPTL3 mRNA, Normalized to Control” value (ANGPTL3 mRNA [1]; 0.1 mg/kg single sc day 1, Day 29) was 0.563 and the “Avg Relative ANGPTL3 mRNA, Normalized to Control” value (ANGPTL3 mRNA [1]; 0.5 mg/kg single sc day 1, Day 29) was 0.277. The “Avg Relative ANGPTL3 mRNA, Normalized to Control” value (ANGPTL3 mRNA [1]; 1.0 mg/kg single sc day 1, Day 29) was 0.123, the “Avg Relative ANGPTL3 mRNA, Normalized to Control” value (ANGPTL3 mRNA [1]; 2.5 mg/kg single sc day 1, Day 29) was 0.036 and the “Avg Relative ANGPTL3 mRNA, Normalized to Control” value (ANGPTL3 mRNA [1]; 5.0 mg/kg single sc day 1, Day 29) was 0.038. The “reduction in ANGPTL3 mRNA” value (ANGPTL3 mRNA [1]; day 29, single subcutaneous dose, C57bl/6 mice) was “reduction”, the “Average Triglycerides Normalized to Pre-Treatment” value (shortened to “Average Triglycerides Normalized”) (ANGPTL3 gene; Day 8) was 0.413 and the “Average Triglycerides Normalized” value (ANGPTL3 gene; Day 15) was 0.403. For the same substance, the “Average Triglycerides Normalized” value (ANGPTL3 gene; Day 22) was 0.288, the “Average Triglycerides Normalized” value (ANGPTL3 gene; Day 29) was 0.344 and the “Average Triglycerides Normalized” value (ANGPTL3 gene; Day 35) was 0.350. The “Avg Relative ANGPTL3 mRNA, Normalized to Control” value (ANGPTL3 mRNA [2]; 3.0 mg/kg days 1 and 29, high fat diet, day 57 sacrifice) was 0.024, the “Avg Relative ANGPTL3 mRNA, Normalized to Control” value (ANGPTL3 mRNA [2]; 3.0 mg/kg days 1 and 29, normal chow, day 57 sacrifice) was 0.060 and the “Avg Relative ANGPTL3 mRNA, Normalized to Control” value (ANGPTL3 mRNA [2]; 3.0 mg/kg, high fat diet, day 15 sacrifice) was 0.019. The “Avg Relative ANGPTL3 mRNA, Normalized to Control” value (ANGPTL3 mRNA [2]; 3.0 mg/kg, high fat diet, day 29 sacrifice) was 0.032 and the “reduction in ANGPTL3 mRNA levels” value (ANGPTL3 mRNA [2]; both high fat Western diet and normal chow-fed diet, LDLR KO mice) was “significant reduction”.
